Patent US6355799B1, “Substituted benzene compounds, process for their preparation, and herbicidal and defoliant compositions containing them” (ISK Americas Incorporated, priority 1997, dated 2002)

What was measured:
Type in all cases: in vivo
[1] = system: redroot pigweed (Amaranthus retroflexus, AMARE); test: Pre-emerge test, greenhouse herbicide activity screening; settings: pre-emerge, 14 days after application, rating scale 0-100
Summary of the method: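 Herbicidal damage is scored 0 (none) to 100 (complete plant death) two weeks after a simulated field spray. Rates span 15–1000 g ai/ha, delivered in acetone at 187 l/ha. For post-emergence treatments, plants have 2–3 leaves and the spray carries 0.25% v/v non-ionic surfactant.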

[2] = system: barnyardgrass (Echinochloa crus-galli, ECHCG); test: as above; settings: pre-emerge, 14 days after application, rating scale 0-100
Summary of the method: (§1)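 Compounds in acetone were track-sprayed at 187 l/ha, 15–1000 g ai/ha, onto sandy loam pots. Pre-emerge seeds were sown one day before spraying, with surface watering afterwards. Post-emerge plants were at the 2–3 leaf stage and sprayed with 0.25% v/v non-ionic surfactant. Injury was rated 0–100 at 14 days.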

[3] = system: common ragweed (Ambrosia artemisizfolia L., AMBEL); test: as above; settings: pre-emerge, 14 days after application, rating scale 0-100
Summary of the method: as §1

[4] = system: green foxtail (Setaria viridis, SETVI); test: as above; settings: pre-emerge, 14 days after application, rating scale 0-100
Summary of the method: as §1

[5] = system: ivyleaf morningglory (Ipomoea hederacea, IPOHE); test: as above; settings: pre-emerge, 14 days after application, rating scale 0-100
Summary of the method: as §1

[6] = system: johnsongrass (Sorghum halepense, SORHA); test: as above; settings: pre-emerge, 14 days after application, rating scale 0-100
Summary of the method: as §1

[7] = system: lambsquarters (Chenopodium album, CHEAL); test: as above; settings: pre-emerge, 14 days after application, rating scale 0-100
Summary of the method: as §1

[8] = system: large crabgrass (Digitaria sanguinalis, DIGSA); test: as above; settings: pre-emerge, 14 days after application, rating scale 0-100
Summary of the method: as §1

[9] = system: sicklepod (Cassia obtusifolia, CASOB); test: as above; settings: pre-emerge, 14 days after application, rating scale 0-100
Summary of the method: as §1

[10] = system: velvetleaf (Abutilon theophrasti, ABUTH); test: as above; settings: pre-emerge, 14 days after application, rating scale 0-100
Summary of the method: as §1

[11] = system: field corn (Zea mays L., var. Dekalb 535, CORN); test: Pre-emerge test, crop safety; settings: pre-emerge, 14 days after application, rating scale 0-100
Summary of the method: (§2)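 Rating: 0–100 visual injury, 14 DAA. Application: acetone, 187 l/ha, 15–1000 g ai/ha, flat-fan track sprayer with nozzle 40–45 cm above soil or canopy. Post-emerge runs used 0.25% v/v surfactant on 2–3 leaf plants.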

[12] = system: upland rice (Oryza sp., var. Tebonnet, RICE); test: Pre-emerge test, crop safety; settings: pre-emerge, 14 days after application, rating scale 0-100
Summary of the method: as §2

[13] = system: barnyardgrass (Echinochloa crus-galli, ECHCG); test: Post-emerge test, greenhouse herbicide activity screening; settings: rating scale 0-100 (0 no damage, 100 complete death), 14 days after application
Summary of the method: (§3)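 Fourteen days after spraying, crop and weed injury was graded visually from 0, no effect, to 100, every plant dead. Test substances were dissolved in acetone and applied at 15–1000 g ai/ha with a flat-fan nozzle. Application was either pre-emergence, one day after sowing, or post-emergence at the 2–3 leaf stage.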

[14] = system: common ragweed (Ambrosia artemisizfolia L., AMBEL); test: as above; settings: Rate 63 g ai/ha; rating scale 0-100 (0 no damage, 100 complete death); 14 days after application
Summary of the method: as §3

[15] = system: green foxtail (Setaria viridis, SETVI); test: as above; settings: rating scale 0-100 (0 no damage, 100 complete death), 14 days after application
Summary of the method: as §3

[16] = system: ivyleaf morningglory (Ipomoea hederacea, IPOHE); test: as above; settings: rating scale 0-100 (0 no damage, 100 complete death), 14 days after application
Summary of the method: as §3

[17] = system: johnsongrass (Sorghum halepense, SORHA); test: as above; settings: rating scale 0-100 (0 no damage, 100 complete death), 14 days after application
Summary of the method: as §3

[18] = system: lambsquarters (Chenopodium album, CHEAL); test: as above; settings: rating scale 0-100 (0 no damage, 100 complete death), 14 days after application
Summary of the method: as §3

[19] = system: large crabgrass (Digitaria sanguinalis, DIGSA); test: as above; settings: rating scale 0-100 (0 no damage, 100 complete death), 14 days after application
Summary of the method: as §3

[20] = system: redroot pigweed (Amaranthus retroflexus, AMARE); test: as above; settings: rating scale 0-100 (0 no damage, 100 complete death), 14 days after application
Summary of the method: as §3

[21] = system: sicklepod (Cassia obtusifolia, CASOB); test: as above; settings: rating scale 0-100 (0 no damage, 100 complete death), 14 days after application
Summary of the method: as §3

[22] = system: velvetleaf (Abutilon theophrasti, ABUTH); test: as above; settings: rating scale 0-100 (0 no damage, 100 complete death), 14 days after application
Summary of the method: as §3

[23] = system: field corn (Zea mays L., var. Dekalb 535, CORN); test: Post-emerge test, crop safety; settings: rating scale 0-100 (0 no damage, 100 complete death), 14 days after application
Summary of the method: as §1

[24] = system: upland rice (Oryza sp., var. Tebonnet, RICE); test: Post-emerge test, crop safety; settings: rating scale 0-100 (0 no damage, 100 complete death), 14 days after application
Summary of the method: as §1

## COc1c(Cl)cc(F)c(-n2c(=O)cc(C(F)(F)F)n(C)c2=O)c1CC(C)(Cl)C(=O)OCCSC (centres unmarked) [14-48]
[1]; 63 g ai/ha
  phytotoxicity rating AMARE: 90
[1]; 250 g ai/ha
  phytotoxicity rating AMARE: 100
[2]; 63 g ai/ha
  phytotoxicity rating ECHCG: 0
[2]; 250 g ai/ha
  phytotoxicity rating ECHCG: 50
[3]; 63 g ai/ha
  phytotoxicity rating AMBEL: 0
[3]; 250 g ai/ha
  phytotoxicity rating AMBEL: 80
[4]; 63 g ai/ha
  phytotoxicity rating SETVI: 0
[4]; 250 g ai/ha
  phytotoxicity rating SETVI: 50
[5]; 63 g ai/ha
  phytotoxicity rating IPOHE: 0
[5]; 250 g ai/ha
  phytotoxicity rating IPOHE: 0
[6]; 63 g ai/ha
  phytotoxicity rating SORHA: 0
[6]; 250 g ai/ha
  phytotoxicity rating SORHA: 0
[7]; 63 g ai/ha
  phytotoxicity rating CHEAL: 50
[7]; 250 g ai/ha
  phytotoxicity rating CHEAL: 100
[8]; 63 g ai/ha
  phytotoxicity rating DIGSA: 0
[8]; 250 g ai/ha
  phytotoxicity rating DIGSA: 70
[9]; 63 g ai/ha
  phytotoxicity rating CASOB: 0
[9]; 250 g ai/ha
  phytotoxicity rating CASOB: 0
[10]; 63 g ai/ha
  phytotoxicity rating ABUTH: 90
[10]; 250 g ai/ha
  phytotoxicity rating ABUTH: 100
[11]; 63 g ai/ha
  phytotoxicity rating CORN: 0
[11]; 250 g ai/ha
  phytotoxicity rating CORN: 40
[12]; 63 g ai/ha
  phytotoxicity rating RICE: 30
[12]; 250 g ai/ha
  phytotoxicity rating RICE: 70
[13]; Rate 63 g ai/ha
  Post-emerge Herbicidal Activity, phytotoxicity rating ECHCG: 50
[13]; Rate 250 g ai/ha
  Post-emerge Herbicidal Activity, phytotoxicity rating ECHCG: 100
[14]
  Post-emerge Herbicidal Activity, phytotoxicity rating AMBEL: 80
[15]; Rate 63 g ai/ha
  Post-emerge Herbicidal Activity, phytotoxicity rating SETVI: 50
[15]; Rate 250 g ai/ha
  Post-emerge Herbicidal Activity, phytotoxicity rating SETVI: 100
[16]; Rate 63 g ai/ha
  Post-emerge Herbicidal Activity, phytotoxicity rating IPOHE: 0
[16]; Rate 250 g ai/ha
  Post-emerge Herbicidal Activity, phytotoxicity rating IPOHE: 100
[17]; Rate 63 g ai/ha
  Post-emerge Herbicidal Activity, phytotoxicity rating SORHA: 0
[17]; Rate 250 g ai/ha
  Post-emerge Herbicidal Activity, phytotoxicity rating SORHA: 90
[18]; Rate 63 g ai/ha
  Post-emerge Herbicidal Activity, phytotoxicity rating CHEAL: 100
[18]; Rate 250 g ai/ha
  Post-emerge Herbicidal Activity, phytotoxicity rating CHEAL: 100
[19]; Rate 63 g ai/ha
  Post-emerge Herbicidal Activity, phytotoxicity rating DIGSA: 70
[19]; Rate 250 g ai/ha
  Post-emerge Herbicidal Activity, phytotoxicity rating DIGSA: 90
[20]; Rate 63 g ai/ha
  Post-emerge Herbicidal Activity, phytotoxicity rating AMARE: 100
[20]; Rate 250 g ai/ha
  Post-emerge Herbicidal Activity, phytotoxicity rating AMARE: 100
[21]; Rate 63 g ai/ha
  Post-emerge Herbicidal Activity, phytotoxicity rating CASOB: 0
[21]; Rate 250 g ai/ha
  Post-emerge Herbicidal Activity, phytotoxicity rating CASOB: 100
[22]; Rate 63 g ai/ha
  Post-emerge Herbicidal Activity, phytotoxicity rating ABUTH: 100
[22]; Rate 250 g ai/ha
  Post-emerge Herbicidal Activity, phytotoxicity rating ABUTH: 100
[23]; Rate 63 g ai/ha
  Post-emerge phytotoxicity rating CORN (crop damage): 40
[23]; Rate 250 g ai/ha
  Post-emerge phytotoxicity rating CORN (crop damage): 100
[24]; Rate 63 g ai/ha
  Post-emerge phytotoxicity rating RICE (crop damage): 70
[24]; Rate 250 g ai/ha
  Post-emerge phytotoxicity rating RICE (crop damage): 100
